In paper PMC11173508, “Pharmacokinetics and Tissue Distribution of Itampolin A following Intragastric and Intravenous Administration in Rats Using Ultra-High-Performance Liquid Chromatography–Tandem Mass Spectrometry” (Molecules, 2024):
Where two headings read alike, the source gives them in different places.

How the values were obtained:
[1] = Pharmacokinetic study in rats after intragastric and intravenous administration (UHPLC-MS/MS of plasma); type: in vivo, Sprague–Dawley rats; conditions: for MRT inf: n = 6, read-out: MRT0–∞; for k el: n = 6, read-out: ke (converted); for bioavailability: F = Doseiv × AUCig/(Doseig × AUCiv) × 100%, read-out: absolute bioavailability (F)
Experimental: (§1) Sprague–Dawley rats (250 ± 20 g) were supplied from the Experimental Animal Centre of China Medical University (Shenyang, China) and housed under unified conditions. All of the animal experiments were conducted in compliance with the Guidelines for Care and Use of Laboratory Animals of China Medical University and the protocols were approved by the Animal Ethics Committee of the institution (code number: CMU2023205). The rats were raised in a standard environment with a temperature of 24 ± 2 °C, relative humidity of 55 ± 10%, and 12 h light/12 h dark cycles. These rats were acclimatized to the environment for at least one week before the experiment, provided free access to drinking water, and fed during this period. Twenty-four SD rats, which were divided into four groups (six rats per group), received 5 mg/kg itampolin A by intravenous administration or 10, 25, and 50 mg/kg itampolin A by intragastric administration for the pharmacokinetics experiments. Twenty SD rats (five rats for each time point) received 25 mg/kg itampolin A by intragastric administration for the tissue distribution study.
The simple protein precipitation extraction technique using methanol as the precipitating solvent was applied to extract itampolin A and IS from biological samples [23, 24]. The 100 µL of plasma sample, 50 µL of IS working solution, and 200 µL of methanol were added in 500 µL microcentrifuge tubes to precipitate proteins. After vortexing for 1 min, the samples were centrifuged at 12,000 rpm for 10 min to remove the denatured protein. Subsequently, the supernatant was transferred into another tube and evaporated to dryness with a stream of nitrogen at 35 °C. The remains were reconstituted in 100 µL of initial mobile phase, briefly vortexed, and centrifuged at 12,000 rpm for 10 min. Then, 10 µL of the supernatant was transferred to sampling vials for the UHPLC-MS/MS system.
For both intragastric and intravenous administration, itampolin A was dissolved in polyethylene glycol (PEG)-saline (1:3, PEG: 380–420) for the preparation of dosing solutions. Eighteen Sprague–Dawley rats were divided into three groups randomly (six rats each). The rats of each group were weighed, and then given a single dose of 10 mg/kg, 25 mg/kg, and 50 mg/kg itampolin A via intragastric administration, respectively. Blood samples (200 µL) were obtained from orbital vein into heparinized centrifuge tubes at 0.083, 0.25, 0.5, 0.75, 1, 1.5, 2, 3, 4, 6, 8, 12, and 24 h after drug administration.
Six Sprague–Dawley rats were weighed, and then given a single dose of 5 mg/kg of itampolin A via intravenous administration. Blood samples (200 µL) were obtained from orbital vein into heparinized centrifuge tubes at 0.033, 0.083, 0.167, 0.25, 0.5, 0.75, 1, 1.5, 2, 3, 4, 8, and 12 h after drug administration. The blood samples obtained from both intragastric and intravenous administration were immediately separated by centrifugation at 12,000 rpm for 10 min, and then the supernatant plasma was gathered and stored at −20 °C prior to analysis.
The pharmacokinetic parameters were calculated by non-compartmental model using the DAS 3.2.8 software. All data were presented as mean ± SD.

[2] = Tissue distribution study in rats after intragastric administration; type: in vivo, Sprague–Dawley rats; conditions: intragastric 25 mg/kg
Experimental: as §1
Various tissues (heart, liver, spleen, lung, kidney, brain, intestine, and stomach) were harvested and washed with ice-cold 0.9% sodium chloride solution to remove the superficial blood. After being blotted dry with filter paper, each tissue sample weighed accurately was homogenized in 0.9% sodium chloride solution (1:5, w/v). Then, 100 µL of tissue homogenate was taken and processed further like the plasma sample.
Twenty Sprague–Dawley rats were randomly divided into four groups (five rats each) and received a single dose of 25 mg/kg of itampolin A via intragastric administration. The rats were executed by cervical dislocation at 1, 4, 8, and 12 h. Afterwards, various tissue samples, including heart, liver, spleen, lung, kidney, brain, intestine, and stomach, were collected into centrifuged tubes, and then processed with the methods described in “3.5. Sample Preparation”.

[3] = Solubility in normal saline; type: physicochemical
[4] = tested on: non-small-cell lung cancer; set-up: method as in doi:10.2174/1570179414666170215092631; conditions: cited from earlier work
[5] = tested on: p38α; set-up: method as in PMID 30642059; conditions: binding to the DFG-out conformation of p38α; cited from earlier work
[6] = Sprague-Dawley, rat, iv, i.v. 5 mg/kg, plasma, mean ± SD, n = 6
[7] = Sprague-Dawley, rat, iv, i.v. 5 mg/kg, plasma, mean ± SD
[8] = Sprague-Dawley, rat, plasma, iv, 5 mg/kg, i.v. 5 mg/kg, mean ± SD, n = 6
[9] = Sprague-Dawley, rat, plasma, po, 10 mg/kg, i.g. low dose 10 mg/kg, mean ± SD, n = 6
[10] = Sprague-Dawley, rat, plasma, po, 25 mg/kg, i.g. mid dose 25 mg/kg, mean ± SD, n = 6
[11] = Sprague-Dawley, rat, plasma, po, 50 mg/kg, i.g. high dose 50 mg/kg, mean ± SD, n = 6
[12] = Sprague-Dawley, rat, po, i.g. high dose 50 mg/kg, plasma, mean ± SD, n = 6
[13] = Sprague-Dawley, rat, po, i.g. high dose 50 mg/kg, plasma, mean ± SD
[14] = Sprague-Dawley, rat, po, i.g. low dose 10 mg/kg, plasma, mean ± SD, n = 6
[15] = Sprague-Dawley, rat, po, i.g. low dose 10 mg/kg, plasma, mean ± SD
[16] = Sprague-Dawley, rat, po, i.g. mid dose 25 mg/kg, plasma, mean ± SD, n = 6
[17] = Sprague-Dawley, rat, po, i.g. mid dose 25 mg/kg, plasma, mean ± SD
[18] = i.g. high dose 50 mg/kg, plasma, mean ± SD, n = 6
[19] = i.g. low dose 10 mg/kg, plasma, mean ± SD, n = 6
[20] = i.g. mid dose 25 mg/kg, plasma, mean ± SD, n = 6
[21] = intragastric 10, 25 and 50 mg/kg
[22] = measured within 12 h, mean ± SD, n = 5

- AUC(0-inf) [1, 6]: 2830 ± 110 ng·h/mL
- AUC(0-t) [1, 6]: 978 ± 26.2 ng·h/mL
- Cmax [1, 6]: 1340 ± 52.2 ng/mL
- clearance [1, 6]: 30 mL/min/kg
- MRT inf [1, 7]: 4.8 ± 0.3 h
- Vd ([1]; Sprague-Dawley, rat, iv, i.v. 5 mg/kg, plasma, mean ± SD, n = 6, read-out: Vd): 6.6 ± 0.4 L/kg
- k el [1, 7]: 7.5e-05 s⁻¹
- Tmax [1, 8]: 0.03 h
- half-life [1, 8]: 2.6 ± 0.2 h
- bioavailability ([1]; Sprague-Dawley, rat, plasma, oral dose 10 mg/kg vs i.v. 5 mg/kg): 18.8%
- bioavailability ([1]; Sprague-Dawley, rat, plasma, oral dose 25 mg/kg vs i.v. 5 mg/kg): 13.7%
- bioavailability ([1]; Sprague-Dawley, rat, plasma, oral dose 50 mg/kg vs i.v. 5 mg/kg): 11.2%
- Tmax [1, 9]: 1.7 ± 0.2 h
- half-life [1, 9]: 2.6 ± 0.3 h
- Tmax [1, 10]: 1.7 ± 0.2 h
- half-life [1, 10]: 2.3 ± 0.2 h
- Tmax [1, 11]: 0.9 ± 0.1 h
- half-life [1, 11]: 2.1 ± 0.2 h
- half-life ([1]; Sprague-Dawley, rat, plasma, po, 50 mg/kg, intragastric 10, 25 and 50 mg/kg, range over the three doses): 2.1 to 2.6 h
- Tmax ([1]; Sprague-Dawley, rat, plasma, po, 50 mg/kg, intragastric 10, 25 and 50 mg/kg, summary over the three doses): < 1.7 h
- AUC(0-inf) [1, 12]: 3190 ± 94.7 ng·h/mL
- AUC(0-t) [1, 12]: 2640 ± 44.6 ng·h/mL
- Cmax [1, 12]: 807 ± 36.9 ng/mL
- MRT inf [1, 13]: 3.7 ± 0.2 h
- k el [1, 13]: 9.17e-05 s⁻¹
- AUC(0-inf) [1, 14]: 1080 ± 55.8 ng·h/mL
- AUC(0-t) [1, 14]: 939 ± 34.9 ng·h/mL
- Cmax [1, 14]: 283 ± 20 ng/mL
- MRT inf [1, 15]: 4.6 ± 0.5 h
- k el [1, 15]: 7.5e-05 s⁻¹
- AUC(0-inf) [1, 16]: 1940 ± 116 ng·h/mL
- AUC(0-t) [1, 16]: 1540 ± 44.9 ng·h/mL
- Cmax [1, 16]: 412 ± 13.7 ng/mL
- MRT inf [1, 17]: 4.2 ± 0.3 h
- k el [1, 17]: 8.33e-05 s⁻¹
- CL [1, 18]: 207 ± 6.7 mL/min/kg
- Vd [1, 18]: 44.6 ± 2.8 L/kg
- CL [1, 19]: 185 ± 8.3 mL/min/kg
- Vd [1, 19]: 42.2 ± 2.9 L/kg
- CL [1, 20]: 215 ± 13 mL/min/kg
- Vd [1, 20]: 43.9 ± 1.7 L/kg
- correlation coefficient of AUC0–t versus dose (dose linearity) [1, 21]: 0.999
- correlation coefficient of AUC0–∞ versus dose (dose linearity) [1, 21]: 0.998
- correlation coefficient of Cmax versus dose (dose linearity) [1, 21]: 0.981
- concentration in the brain [2]: lower concentration in the brain
- highest concentration in intestine [2, 22]: 378.2 ± 36.8 ng/mL
- highest concentration in kidney [2, 22]: 497.7 ± 51.9 ng/mL
- highest concentration in liver [2, 22]: 418.8 ± 40.3 ng/mL
- highest concentration in lung [2, 22]: 800.6 ± 79.0 ng/mL
- highest concentration in stomach [2, 22]: 429.6 ± 27.2 ng/mL
- solubility in normal saline [3]: small
SMILES: COc1c(Br)cc(C[C@H](NC(=O)Cc2ccc(OCCCNC(C)=O)cc2)C(=O)NCCc2cc(Br)c(O)c(Br)c2)cc1Br [itampolin A, Itampolin A]
- distribution in the heart and spleen [2]: low distribution level and rapid elimination
- anticancer activity against non-small-cell lung cancer [4]: significant anticancer activity
- phospho-p38α expression [5]: decreasing the phospho-p38α expression
